Reference: publication PMC3914206

Legend:
Assay type in all cases: binding
panel of 442 kinases [1] = biological target: T1, panel of 442 kinases (Homo sapiens, UniProt Q96L34); details: Compound Concentration 10 µM
T1 construct: purchased KINOMEscan
T1 sequence (Q96L34 1-752): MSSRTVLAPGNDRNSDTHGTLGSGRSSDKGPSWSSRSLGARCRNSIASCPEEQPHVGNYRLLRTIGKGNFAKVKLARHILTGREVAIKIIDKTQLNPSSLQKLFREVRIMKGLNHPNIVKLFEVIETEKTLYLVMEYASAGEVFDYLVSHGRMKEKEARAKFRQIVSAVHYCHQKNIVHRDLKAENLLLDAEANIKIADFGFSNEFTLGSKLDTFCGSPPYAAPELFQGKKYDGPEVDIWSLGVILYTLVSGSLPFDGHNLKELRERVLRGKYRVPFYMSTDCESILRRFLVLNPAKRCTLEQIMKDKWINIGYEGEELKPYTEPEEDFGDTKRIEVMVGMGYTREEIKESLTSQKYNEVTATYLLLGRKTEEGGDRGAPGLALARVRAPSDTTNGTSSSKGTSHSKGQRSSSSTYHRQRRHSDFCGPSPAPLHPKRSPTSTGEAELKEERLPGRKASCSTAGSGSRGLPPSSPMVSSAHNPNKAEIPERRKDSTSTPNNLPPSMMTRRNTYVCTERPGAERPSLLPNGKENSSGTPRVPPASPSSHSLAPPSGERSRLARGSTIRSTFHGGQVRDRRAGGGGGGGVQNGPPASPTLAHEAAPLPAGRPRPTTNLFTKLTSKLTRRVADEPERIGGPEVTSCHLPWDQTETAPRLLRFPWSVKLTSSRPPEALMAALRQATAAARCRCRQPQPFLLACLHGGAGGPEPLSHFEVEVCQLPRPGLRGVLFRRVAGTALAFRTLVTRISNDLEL
Description: (§1) We assessed the selectivity of members of this scaffold using the KINOMEscan methodology across a near comprehensive panel of 442 kinases [[18,27]].

panel of 442 kinases [2] = biological target: T2, panel of 442 kinases (Homo sapiens, UniProt Q05655); details: Compound Concentration 10 µM
T2 construct: purchased KINOMEscan
Description: as §1

panel of 442 kinases [3] = biological target: T3, panel of 442 kinases (Homo sapiens, UniProt Q9UPE1); details: kinase SRPK3; compound concentration 10 µM
T3 construct: purchased KINOMEscan
Description: as §1

T3 sequence (Q9UPE1 whole entry): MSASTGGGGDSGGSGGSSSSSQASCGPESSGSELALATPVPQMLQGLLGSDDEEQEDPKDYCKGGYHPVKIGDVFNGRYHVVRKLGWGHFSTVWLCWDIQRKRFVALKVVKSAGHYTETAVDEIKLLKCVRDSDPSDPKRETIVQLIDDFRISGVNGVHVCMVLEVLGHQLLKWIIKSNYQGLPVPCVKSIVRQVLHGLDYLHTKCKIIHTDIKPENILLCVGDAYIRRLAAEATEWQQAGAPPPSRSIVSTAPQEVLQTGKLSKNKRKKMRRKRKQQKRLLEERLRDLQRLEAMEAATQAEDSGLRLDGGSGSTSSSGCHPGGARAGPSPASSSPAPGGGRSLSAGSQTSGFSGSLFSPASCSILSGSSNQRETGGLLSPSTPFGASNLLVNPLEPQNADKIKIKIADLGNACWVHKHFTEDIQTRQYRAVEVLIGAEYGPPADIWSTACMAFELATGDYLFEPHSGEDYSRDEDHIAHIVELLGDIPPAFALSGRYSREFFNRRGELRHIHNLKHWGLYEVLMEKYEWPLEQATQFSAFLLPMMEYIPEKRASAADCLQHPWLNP
T2 sequence (Q05655 whole entry): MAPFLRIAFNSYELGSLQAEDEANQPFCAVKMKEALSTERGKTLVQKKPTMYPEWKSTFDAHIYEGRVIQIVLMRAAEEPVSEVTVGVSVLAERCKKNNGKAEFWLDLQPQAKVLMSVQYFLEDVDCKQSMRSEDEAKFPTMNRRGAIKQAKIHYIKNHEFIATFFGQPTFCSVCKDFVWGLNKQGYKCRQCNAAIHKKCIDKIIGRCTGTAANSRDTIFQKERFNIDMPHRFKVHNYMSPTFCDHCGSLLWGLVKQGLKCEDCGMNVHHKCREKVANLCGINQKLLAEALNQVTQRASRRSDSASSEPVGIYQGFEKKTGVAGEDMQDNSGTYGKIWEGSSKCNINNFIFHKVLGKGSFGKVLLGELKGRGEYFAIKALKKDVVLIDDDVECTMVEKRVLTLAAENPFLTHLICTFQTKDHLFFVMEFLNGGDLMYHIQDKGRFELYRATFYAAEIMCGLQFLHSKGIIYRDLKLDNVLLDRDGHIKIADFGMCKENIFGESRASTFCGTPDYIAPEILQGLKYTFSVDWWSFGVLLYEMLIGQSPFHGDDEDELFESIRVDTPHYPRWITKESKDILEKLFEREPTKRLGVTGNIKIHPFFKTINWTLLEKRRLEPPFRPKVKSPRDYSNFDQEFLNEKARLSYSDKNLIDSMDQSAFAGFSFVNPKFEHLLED

SMILES	KINOMEscan: MARK4 (panel of 442 kinases [1])	KINOMEscan: PRKCD (panel of 442 kinases [2])	% Ctrl, SRPK3 (panel of 442 kinases [3])
COc1cc(C(=O)N2CCC(N3CCN(C)CC3)CC2)ccc1Nc1ncc2c(n1)N(C)c1ccccc1C(=O)N2C [15 (LRRK2-IN-1)]	78	75	72 % Ctrl
COc1cc(C(=O)N2CCC(N3CCN(C)CC3)CC2)ccc1Nc1ncc2c(n1)N1CCc3cccc(c31)C(=O)N2C [Compound 24]	87	67	91 % Ctrl
COc1cc(C(=O)N2CCC(N3CCN(C)CC3)CC2)ccc1Nc1ncc2c(n1)N(C1CCCC1)c1ccccc1C(=O)N2C [Compound 25, 11-cyclopentyl-2-((2-methoxy-4-(4-(4-methylpiperazin-1-yl)piperidine-1-carbonyl)phenyl)amino)-5-methyl-5H-benzo[e]pyrimido[5,4-b][1,4]diazepin-6(11H)-one]	100	100	91 % Ctrl
CCOc1cc(C(=O)N2CCC(N3CCN(C)CC3)CC2)ccc1Nc1ncc2c(n1)N(C1CCCC1)c1ccccc1C(=O)N2C [Compound 26]	100	100	100 % Ctrl
